Reference: US12391737B2, “Soluble NPY2 receptor agonists” (Boehringer Ingelheim International GmbH, priority 2020, dated 2025)

Experiments:
[1] = molecular target: T1, Human Neuropeptide Y2 Receptor (Homo sapiens, UniProt P49146); assay: Radioligand binding competition assay (RLB); settings: Table 3, 125I-PYY(1-36) competition; read-out: Ki
T1 construct: purchased CHEMICON HTS066M
T1 sequence (P49146 1-381): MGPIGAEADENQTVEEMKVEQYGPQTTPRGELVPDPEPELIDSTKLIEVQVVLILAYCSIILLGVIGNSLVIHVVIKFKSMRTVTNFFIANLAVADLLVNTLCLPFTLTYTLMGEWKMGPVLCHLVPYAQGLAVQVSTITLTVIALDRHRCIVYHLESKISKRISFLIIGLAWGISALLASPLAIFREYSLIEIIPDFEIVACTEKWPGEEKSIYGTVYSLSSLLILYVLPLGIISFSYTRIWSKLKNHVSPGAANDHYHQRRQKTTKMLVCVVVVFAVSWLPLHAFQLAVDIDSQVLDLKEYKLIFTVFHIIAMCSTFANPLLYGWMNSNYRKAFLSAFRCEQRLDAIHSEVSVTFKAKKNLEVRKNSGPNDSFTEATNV
Method in brief: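 Peptides were serially diluted from 1 mM DMSO stocks and competed for radioligand binding to receptor membranes (0.5 μg/well) over 2 h at room temperature, pH 7.4 HEPES buffer. Bound radioactivity on filters was counted by scintillation, and IC50 was derived by nonlinear regression.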

Solubility determination = settings: for Sol6: pH 6; for Sol7: pH 7
Method in brief: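 Sample: TFA-salt peptide at 10 mg/ml target in 0.1 M Na diphosphate, pH 6.4 or 7.0, shaken 2 h RT, filtered, diluted to 1 mg/ml.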

| SMILES | Ki [1] | Sol6 (Solubility determination) | Sol7 (Solubility determination) |
| --- | --- | --- | --- |
| CC[C@H](C)[C@H](NC(=O)[C@H](Cc1ccc(O)cc1)NC(=O)[C@H](Cc1ccc(O)cc1)NC(=O)[C@H](CCCNC(=N)N)NC(=O)[C@H](CCC(N)=O)NC(=O)[C@H](CC(C)C)NC(=O)[C@H](CCC(=O)O)NC(=O)[C@H](CCC(=O)O)NC(=O)[C@@H]1CCCN1C(=O)[C@@H](NC(=O)[C@H](C)NC(=O)[C@H](C)NC(=O)[C@H](CCC(=O)O)NC(=O)[C@H](CCC(=O)O)NC(=O)[C@@H]1CCCN1C(=O)[C@H](CCCCNC(=O)CCCCCNC(=O)CC[C@H](NC(=O)CCCCCCCCCCCCCCCCC(=O)O)C(=O)O)NC(=O)[C@H](C)NC(=O)[C@@H]1CCCN1C(=O)[C@H](C)NC(=O)CC(C)C)[C@@H](C)O)C(=O)N[C@@H](CO)C(=O)N[C@@H](CC(C)C)C(=O)N[C@@H](CCCNC(=N)N)C(=O)N[C@@H](Cc1c[nH]cn1)C(=O)N[C@@H](Cc1ccc(O)cc1)C(=O)N[C@@H](Cc1ccc(O)cc1)C(=O)N[C@@H](CC(N)=O)C(=O)N[C@@H](Cc1c[nH]c2ccccc12)C(=O)N[C@@H](CC(C)C)C(=O)N[C@H](C(=O)N[C@@H](CCCNC(=N)N)C(=O)N[C@@H](CCC(N)=O)C(=O)N[C@@H](CCCNC(=N)N)C(=O)N[C@@H](Cc1ccc(O)cc1)C(N)=O)[C@@H](C)O [Compound 48, N{alpha-4}-(3-methylbutanoyl)-N{epsilon-7}-(6-[(4S)-4-carboxy-4-(17-carboxyheptadecanamido)butanamido]hexanoyl)-[4A,6A,7K,9E,11A,13T,18Q,22I,28Y,30W,31L]-hPYY(4-36)] | 1.54 nM | 0.0 mg/mL | 0.3 mg/mL |
| CC[C@H](C)[C@H](NC(=O)[C@H](Cc1ccc(O)cc1)NC(=O)[C@H](Cc1ccc(O)cc1)NC(=O)[C@H](CCCNC(=N)N)NC(=O)[C@H](CCC(N)=O)NC(=O)[C@H](CC(C)C)NC(=O)[C@H](CCC(=O)O)NC(=O)[C@H](CCC(=O)O)NC(=O)[C@@H]1CCCN1C(=O)[C@@H](NC(=O)[C@H](C)NC(=O)[C@H](CC(=O)O)NC(=O)[C@H](CCC(=O)O)NC(=O)[C@H](CCC(=O)O)NC(=O)[C@@H]1CCCN1C(=O)[C@H](CCCCNC(=O)CCCCCNC(=O)CC[C@H](NC(=O)CCCCCCCCCCCCCCCCC(=O)O)C(=O)O)NC(=O)[C@H](C)NC(=O)[C@@H]1CCCN1C(=O)[C@H](C)NC(=O)CC(C)C)[C@@H](C)O)C(=O)N[C@@H](CO)C(=O)N[C@@H](CC(C)C)C(=O)N[C@@H](CCCNC(=N)N)C(=O)N[C@@H](Cc1c[nH]cn1)C(=O)N[C@@H](Cc1ccc(O)cc1)C(=O)N[C@@H](Cc1ccc(O)cc1)C(=O)N[C@@H](CC(N)=O)C(=O)N[C@@H](Cc1c[nH]c2ccccc12)C(=O)N[C@@H](CC(C)C)C(=O)N[C@H](C(=O)N[C@@H](CCCNC(=N)N)C(=O)N[C@@H](CCC(N)=O)C(=O)N[C@@H](CCCNC(=N)N)C(=O)N[C@@H](Cc1ccc(O)cc1)C(N)=O)[C@@H](C)O [Compound 190, N{alpha-4}-(3-methylbutanoyl)-N{epsilon-7}-(6-[(4S)-4-carboxy-4-(17-carboxyheptadecanamido)butanamido]hexanoyl)-[4A,6A,7K,9E,13T,18Q,22I,28Y,30W,31L]-hPYY(4-36)] | 1.95 nM | 8.4 mg/mL | 8.4 mg/mL |
| CC[C@H](C)[C@H](NC(=O)[C@H](CCC(=O)O)NC(=O)[C@H](CCC(=O)O)NC(=O)[C@@H]1CCCN1C(=O)[C@H](CCC(=O)O)NC(=O)[C@H](C)NC(=O)[C@H](C)NC(=O)[C@H](CCC(=O)O)NC(=O)[C@H](CCC(=O)O)NC(=O)[C@@H]1CCCN1C(=O)[C@H](CCCCNC(=O)CCCCCNC(=O)CC[C@H](NC(=O)CCCCCCCCCCCCCCCCC(=O)O)C(=O)O)NC(=O)[C@H](CCC(=O)O)NC(=O)[C@@H]1CCCN1C(=O)[C@H](C)NC(=O)CC(C)C)C(=O)N[C@@H](CCC(N)=O)C(=O)N[C@@H](CCCNC(=N)N)C(=O)N[C@@H](Cc1ccc(O)cc1)C(=O)N[C@@H](Cc1ccc(O)cc1)C(=O)N[C@H](C(=O)N[C@@H](C)C(=O)N[C@@H](CC(C)C)C(=O)N[C@@H](CCCNC(=N)N)C(=O)N[C@@H](Cc1c[nH]cn1)C(=O)N[C@@H](Cc1ccc(O)cc1)C(=O)N[C@@H](Cc1ccc(O)cc1)C(=O)N[C@@H](CC(N)=O)C(=O)N[C@@H](Cc1c[nH]c2ccccc12)C(=O)N[C@@H](CC(C)C)C(=O)N[C@H](C(=O)N[C@@H](CCCNC(=N)N)C(=O)N[C@@H](CCC(N)=O)C(=O)N[C@@H](CCCNC(=N)N)C(=O)N[C@@H](Cc1ccc(O)cc1)C(N)=O)[C@@H](C)O)C(C)C [Compound 156, N{alpha-4}-(3-methylbutanoyl)-N{epsilon-7}-(6-[(4S)-4-carboxy-4-(17-carboxyheptadecanamido)butanamido]hexanoyl)-[4A,7K,9E,11A,13E,17I,18Q,22V,23A,28Y,30W,31L]-hPYY(4-36)] | 4.2 nM | 9.8 mg/mL | 9.6 mg/mL |

Continued by falling Ki [1], values first:

| Ki [1] | Sol6 (Solubility determination) | Sol7 (Solubility determination) | SMILES |
| --- | --- | --- | --- |
| 106 nM | 9.7 mg/mL | 9.6 mg/mL | CC(C)CC(=O)N[C@@H](C)C(=O)N1CCC[C@H]1C(=O)N[C@@H](CCC(=O)O)C(=O)N[C@@H](CCCCNC(=O)CCCCCNC(=O)CC[C@H](NC(=O)CCCCCCCCCCCCCCCCC(=O)O)C(=O)O)C(=O)N1CCC[C@H]1C(=O)N[C@@H](CCC(=O)O)C(=O)N[C@@H](CCC(=O)O)C(=O)N[C@@H](CC(=O)O)C(=O)N[C@@H](CCC(=O)O)C(=O)N[C@H](C(=O)N1CCC[C@H]1C(=O)N[C@@H](CCC(=O)O)C(=O)N[C@@H](CCC(=O)O)C(=O)N[C@@H](CC(C)C)C(=O)N[C@@H](CCC(N)=O)C(=O)N[C@@H](CCCNC(=N)N)C(=O)N[C@@H](Cc1ccc(O)cc1)C(=O)N[C@@H](Cc1ccc(O)cc1)C(=O)N[C@H](C(=O)N[C@@H](CO)C(=O)N[C@@H](CC(C)C)C(=O)N[C@@H](CCCNC(=N)N)C(=O)N[C@@H](Cc1c[nH]cn1)C(=O)N[C@@H](Cc1ccc(O)cc1)C(=O)N[C@@H](Cc1ccc(O)cc1)C(=O)N[C@@H](CC(N)=O)C(=O)N[C@@H](Cc1c[nH]c2ccccc12)C(=O)N[C@@H](CC(C)C)C(=O)N[C@H](C(=O)N[C@@H](CCCNC(=N)N)C(=O)N[C@@H](CCC(N)=O)C(=O)N[C@@H](CCCNC(=N)N)C(=O)N[C@@H](Cc1ccc(O)cc1)C(N)=O)[C@@H](C)O)C(C)C)[C@@H](C)O [Compound 8, N{alpha-4}-(3-methylbutanoyl)-N{epsilon-7}-(6-[(4S)-4-carboxy-4-(17-carboxyheptadecanamido)butanamido]hexanoyl)[4A,7K,9E,12E,13T,18Q,22V,28Y,30W,31L]-hPYY(4-36)] |
| 7.15 nM | 10.0 mg/mL | 9.7 mg/mL | CC(C)CC(=O)N[C@@H](C)C(=O)N1CCC[C@H]1C(=O)N[C@@H](CCC(=O)O)C(=O)N[C@@H](CCCCNC(=O)CCCCCNC(=O)CC[C@H](NC(=O)CCCCCCCCCCCCCCCCC(=O)O)C(=O)O)C(=O)N1CCC[C@H]1C(=O)N[C@@H](CCC(=O)O)C(=O)N[C@@H](CCC(=O)O)C(=O)N[C@@H](CC(=O)O)C(=O)N[C@@H](C)C(=O)N[C@H](C(=O)N[C@@H](CC(C)C)C(=O)N[C@@H](CCC(=O)O)C(=O)N[C@@H](CCC(=O)O)C(=O)N[C@@H](CC(C)C)C(=O)N[C@@H](CCC(N)=O)C(=O)N[C@@H](CCCNC(=N)N)C(=O)N[C@@H](Cc1ccc(O)cc1)C(=O)N[C@@H](Cc1ccc(O)cc1)C(=O)N[C@H](C(=O)N[C@@H](CO)C(=O)N[C@@H](CC(C)C)C(=O)N[C@@H](CCCNC(=N)N)C(=O)N[C@@H](Cc1c[nH]cn1)C(=O)N[C@@H](Cc1ccc(O)cc1)C(=O)N[C@@H](Cc1ccc(O)cc1)C(=O)N[C@@H](CC(N)=O)C(=O)N[C@@H](Cc1c[nH]c2ccccc12)C(=O)N[C@@H](CC(C)C)C(=O)N[C@H](C(=O)N[C@@H](CCCNC(=N)N)C(=O)N[C@@H](CCC(N)=O)C(=O)N[C@@H](CCCNC(=N)N)C(=O)N[C@@H](Cc1ccc(O)cc1)C(N)=O)[C@@H](C)O)C(C)C)[C@@H](C)O [Compound 102, N{alpha-4}-(3-methylbutanoyl)-N{epsilon-7}-(6-[(4S)-4-carboxy-4-(17-carboxyheptadecanamido)butanamido]hexanoyl)-[4A,7K,9E,13T,14L,18Q,22V,28Y,30W,31L]-hPYY(4-36)] |
